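Method: 48-hour compound exposure of cells in 96-well plates, five concentrations, linear interpolation of endpoints. GI50 marks 50% less growth.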 Calls of active or inactive are those of the source. Cut-off read from the data, not from the text of the source: active = GI50 up to about 1.1 µM and inactive = higher.
Key:
Experiment in all cases: DTP human tumour cell line panel, 48 h
ACHN = test system: ACHN
CAKI-1 = test system: CAKI-1
CCRF-CEM = test system: CCRF-CEM
EKVX = test system: EKVX
HCT-15 = test system: HCT-15
HT-29 = test system: HT-29
LOX IMVI = test system: LOX IMVI
MOLT-4 = test system: MOLT-4
SF-295 = test system: SF-295
SK-MEL-28 = test system: SK-MEL-28
SNB-19 = test system: SNB-19
T47D = test system: T47D
TK-10 = test system: TK-10
U-251 = test system: U-251
UACC-257 = test system: UACC-257
UO-31 = test system: UO-31
M14 = test system: M14
PC-3 = test system: PC-3

Structure (SMILES) | GI50 (ACHN) | GI50 (CAKI-1) | GI50 (CCRF-CEM) | GI50 (EKVX) | GI50 (HCT-15) | GI50 (HT-29) | GI50 (LOX IMVI) | GI50 (MOLT-4) | GI50 (SF-295) | GI50 (SK-MEL-28) | GI50 (SNB-19) | GI50 (T47D) | GI50 (TK-10) | GI50 (U-251) | GI50 (UACC-257) | GI50 (UO-31) | GI50 (M14) | GI50 (PC-3)
COc1ccc(-c2nc(Nc3ccccc3)sc2Cc2sc(Nc3ccccc3)nc2-c2ccc(OC)cc2)cc1 | 45.1 µM (inactive) | > 100 µM (inactive) | 36.5 µM (inactive) | > 100 µM (inactive) | > 100 µM | 70.6 µM (inactive) | 15.5 µM (inactive) | 12.6 µM (inactive) | > 10 µM (inactive) | > 100 µM (inactive) | > 100 µM (inactive) | 38.5 µM (inactive) | > 100 µM (inactive) | > 100 µM (inactive) | > 100 µM (inactive) | > 100 µM (inactive) | – | –
O=c1nc2n(cc1/C=C\Br)C1CC(O)C(CO2)O1 (stereo unspecified) | > 100 µM (inactive) | > 100 µM (inactive) | 36.7 µM (inactive) | > 100 µM (inactive) | > 100 µM | > 100 µM (inactive) | > 100 µM (inactive) | > 100 µM (inactive) | > 100 µM (inactive) | > 100 µM (inactive) | > 100 µM (inactive) | > 100 µM (inactive) | > 100 µM (inactive) | > 100 µM (inactive) | > 100 µM (inactive) | > 100 µM (inactive) | – | –
NC1=C(N2CCOCC2)C(=O)NC2=N/C(=C\c3ccccc3O)C(=O)N21 | > 100 µM (inactive) | > 100 µM (inactive) | > 100 µM (inactive) | > 100 µM (inactive) | 51.1 µM | > 100 µM (inactive) | > 100 µM (inactive) | 31.6 µM (inactive) | > 100 µM (inactive) | > 100 µM (inactive) | > 100 µM (inactive) | 51.2 µM (inactive) | > 100 µM (inactive) | > 100 µM (inactive) | > 100 µM (inactive) | > 100 µM (inactive) | > 100 µM (inactive) | –
CCOC(=O)C(C)c1nc2cc(F)c(N3CCOCC3)cc2[nH]c1=O (stereo unspecified) | > 100 µM (inactive) | > 100 µM (inactive) | > 100 µM (inactive) | > 100 µM (inactive) | > 100 µM | > 100 µM (inactive) | – | 85.9 µM (inactive) | > 100 µM (inactive) | > 100 µM (inactive) | > 100 µM (inactive) | 51.9 µM (inactive) | > 100 µM (inactive) | > 100 µM (inactive) | > 100 µM (inactive) | > 100 µM (inactive) | > 100 µM (inactive) | 71.9 µM (inactive)
COc1cc(COC(=O)N2CCCCC2C(=O)O)c([N+](=O)[O-])cc1OC (stereo unspecified) | > 100 µM (inactive) | – | > 100 µM (inactive) | > 100 µM (inactive) | > 100 µM | > 100 µM (inactive) | – | > 100 µM (inactive) | > 100 µM (inactive) | > 100 µM (inactive) | > 100 µM (inactive) | > 100 µM (inactive) | > 100 µM (inactive) | > 100 µM (inactive) | > 100 µM (inactive) | > 100 µM (inactive) | > 100 µM (inactive) | > 100 µM (inactive)
[O-][S+](Nc1ccccc1)c1ccccc1Oc1ccccc1 (stereo unspecified) | 46 µM (inactive) | 39.8 µM (inactive) | 32.5 µM (inactive) | 26 µM (inactive) | 27.7 µM | 60.5 µM (inactive) | 19.7 µM (inactive) | 19.1 µM (inactive) | 28.2 µM (inactive) | 33.5 µM (inactive) | 38.9 µM (inactive) | – | > 100 µM (inactive) | 22 µM (inactive) | 51.2 µM (inactive) | 20.9 µM (inactive) | 24.5 µM (inactive) | 39.2 µM (inactive)
Nc1ccc(-c2nc3ccc(F)cc3s2)cc1I | > 100 µM (inactive) | > 100 µM (inactive) | > 21.2 µM (inactive) | > 51.6 µM (inactive) | > 100 µM | 56.1 µM (inactive) | > 100 µM (inactive) | 12.4 µM (inactive) | > 71 µM (inactive) | > 100 µM (inactive) | > 61.2 µM (inactive) | – | < 0.01 µM (active) | > 90.8 µM (inactive) | > 100 µM (inactive) | > 100 µM (inactive) | > 100 µM (inactive) | > 100 µM (inactive)
